Laboratory results from patent US8129398B2 (priority 2008, dated 2012).

The compounds below were run against T1, HIV-integrase (Human immunodeficiency virus type 1 group M subtype B, UniProt P12497) (assay: HIV-Integrase Inhibition Activity (SPA bead integration assay with P33 labeled target DNA)). Settings: recombinant integrase, class symbols; read-out: in vitro activity.
T1 construct: Recombinant integrase (0.26 ng) was incubated with the beads
Format: biochemical
Procedure, shortened: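 Strand integration read as bead-proximity CPM after P33 target DNA (0.1 fmol) and inhibitor were added to washed integrase–substrate DNA complexes on SPA beads. Enzyme bound 90 min at 37° C; EDTA (10 mM final) terminated reaction; IC50 graded A/B/C.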

Cc1cc(CNC(=O)c2nc3n(c(=O)c2O)CC2CCC3(NC(=O)c3cc(-c4cnn(C)c4)on3)CC2)ccc1F [Example 292, 7,10-Ethanopyrimido[1,2-a]azepine-2-carboxamide, N-[(4-fluoro-3-methylphenyl)methyl]-4,6,7,8,9,10-hexahydro-3-hydroxy-10-[[[5-(1-methyl-1H-pyrazol-4-yl)-3-isoxazolyl]carbonyl]amino]-4-oxo-] and Cc1cc(CNC(=O)c2nc3n(c(=O)c2O)CC2CCC3(NC(=O)c3ccncc3)CC2)ccc1F [Example 309, 7,10-Ethanopyrimido[1,2-a]azepine-2-carboxamide, N-[(4-fluoro-3-methylphenyl)methyl]-4,6,7,8,9,10-hexahydro-3-hydroxy-4-oxo-10-[(4-pyridinylcarbonyl)amino]-] cannot be ordered by IC50: less than 10 nM for the first, less than 10 nM for the second.

Cc1cc(CNC(=O)c2nc3n(c(=O)c2O)CC2CCC3(NS(=O)(=O)c3cn(C)c(=O)n(C)c3=O)CC2)ccc1F [Example 293, 7,10-Ethanopyrimido[1,2-a]azepine-2-carboxamide, N-[(4-fluoro-3-methylphenyl)methyl]-4,6,7,8,9,10-hexahydro-3-hydroxy-4-oxo-10-[[(1,2,3,4-tetrahydro-1,3-dimethyl-2,4-dioxo-5-pyrimidinyl)sulfonyl]amino]-] and Cc1cc(CNC(=O)c2nc3n(c(=O)c2O)CC2CCC3(NC(=O)C3=NNC(=O)CC3)CC2)ccc1F [Example 305, 7,10-Ethanopyrimido[1,2-a]azepine-2-carboxamide, N-[(4-fluoro-3-methylphenyl)methyl]-4,6,7,8,9,10-hexahydro-3-hydroxy-4-oxo-10-[[(1,4,5,6-tetrahydro-6-oxo-3-pyridazinyl)carbonyl]amino]-] cannot be ordered by IC50: less than 10 nM for the first, less than 10 nM for the second.

First: CS(=O)(=O)N1[C@@H]2C[C@@H]2C[C@H]1C(=O)NC12CCC(CC1)Cn1c2nc(C(=O)NCc2ccc(F)cc2)c(O)c1=O [Example 294, 7,10-Ethanopyrimido[1,2-a]azepine-2-carboxamide, N-[(4-fluorophenyl)methyl]-4,6,7,8,9,10-hexahydro-3-hydroxy-10-[[[(1R,3S,5R)-2-(methylsulfonyl)-2-azabicyclo[3.1.0]hex-3-yl]carbonyl]amino]-4-oxo-]
Second: COc1c(C(=O)NCc2ccc(F)cc2)nc2n(c1=O)CC1CCC2(NC(=O)CCC(=O)O)CC1 [Example 308, Butanoic acid, 4-[[2-[[[(4-fluorophenyl)methyl]amino]carbonyl]-6,7,8,9-tetrahydro-3-methoxy-4-oxo-7,10-ethanopyrimido[1,2-a]azepin-10(4H)-yl]amino]-4-oxo-]
The IC50 of the first is lower: less than 10 nM for the first, greater than 100 nM for the second.

CO[C@H]1C[C@@H](C(=O)NC23CCC(CC2)Cn2c3nc(C(=O)NCc3ccc(F)c(C)c3)c(O)c2=O)N(C(=O)c2cc(C)n(C)n2)C1 [Example 295, 7,10-Ethanopyrimido[1,2-a]azepine-2-carboxamide, 10-[[[(2S,4S)-1-[(1,5-dimethyl-1H-pyrazol-3-yl)carbonyl]-4-methoxy-2-pyrrolidinyl]carbonyl]amino]-N-[(4-fluoro-3-methylphenyl)methyl]-4,6,7,8,9,10-hexahydro-3-hydroxy-4-oxo-] and CO[C@H]1C[C@@H](C(=O)NC23CCC(CC2)Cn2c3nc(C(=O)NCc3ccc(F)c(C)c3)c(O)c2=O)N(C(=O)c2cc(C)on2)C1 [Example 296, 7,10-Ethanopyrimido[1,2-a]azepine-2-carboxamide, N-[(4-fluoro-3-methylphenyl)methyl]-4,6,7,8,9,10-hexahydro-3-hydroxy-10-[[[(2S,4S)-4-methoxy-1-[(5-methyl-3-isoxazolyl)carbonyl]-2-pyrrolidinyl]carbonyl]amino]-4-oxo-] cannot be ordered by IC50: less than 10 nM for the first, less than 10 nM for the second.

CO[C@H]1C[C@@H](C(=O)NC23CCC(CC2)Cn2c3nc(C(=O)NCc3ccc(F)c(C)c3)c(O)c2=O)N(C(=O)c2nnc(C)o2)C1 [Example 297, 7,10-Ethanopyrimido[1,2-a]azepine-2-carboxamide, N-[(4-fluoro-3-methylphenyl)methyl]-4,6,7,8,9,10-hexahydro-3-hydroxy-10-[[[(2S,4S)-4-methoxy-1-[(5-methyl-1,3,4-oxadiazol-2-yl)carbonyl]-2-pyrrolidinyl]carbonyl]amino]-4-oxo-] and CO[C@H]1C[C@@H](C(=O)NC23CCC(CC2)Cn2c3nc(C(=O)NCc3ccc(F)c(C)c3)c(O)c2=O)N(C(=O)c2ncn(C)n2)C1 [Example 299, 7,10-Ethanopyrimido[1,2-a]azepine-2-carboxamide, N-[(4-fluoro-3-methylphenyl)methyl]-4,6,7,8,9,10-hexahydro-3-hydroxy-10-[[[(2S,4S)-4-methoxy-1-[(1-methyl-1H-1,2,4-triazol-3-yl)carbonyl]-2-pyrrolidinyl]carbonyl]amino]-4-oxo-] cannot be ordered by IC50: less than 10 nM for the first, less than 10 nM for the second.

First: CO[C@H]1C[C@@H](C(=O)NC23CCC(CC2)Cn2c3nc(C(=O)NCc3ccc(F)c(C)c3)c(O)c2=O)N(C(=O)c2nccn2C)C1 [Example 298, 7,10-Ethanopyrimido[1,2-a]azepine-2-carboxamide, N-[(4-fluoro-3-methylphenyl)methyl]-4,6,7,8,9,10-hexahydro-3-hydroxy-10-[[[(2S,4S)-4-methoxy-1-[(1-methyl-1H-imidazol-2-yl)carbonyl]-2-pyrrolidinyl]carbonyl]amino]-4-oxo-]
Second: Cc1cc(CNC(=O)c2nc3n(c(=O)c2O)CC2CCC3(NC(=O)[C@H]3CCN(C(=O)c4cc(C)n(C)n4)C3)CC2)ccc1F [Example 301, 7,10-Ethanopyrimido[1,2-a]azepine-2-carboxamide, 10-[[[(3S)-1-[(1,5-dimethyl-1H-pyrazol-3-yl)carbonyl]-3-pyrrolidinyl]carbonyl]amino]-N-[(4-fluoro-3-methylphenyl)methyl]-4,6,7,8,9,10-hexahydro-3-hydroxy-4-oxo-]
The IC50 of the first is lower: less than 10 nM for the first, 10 to 100 nM for the second. The first is the more potent here.

C=C[C@H]1C[C@@]1(NC(C)=O)C(=O)NC12CCC(CC1)Cn1c2nc(C(=O)NCc2ccc(F)c(C)c2)c(O)c1=O [Example 300, 7,10-Ethanopyrimido[1,2-a]azepine-2-carboxamide, 10-[[[(1S,2R)-1-(acetylamino)-2-ethenylcyclopropyl]carbonyl]amino]-N-[(4-fluoro-3-methylphenyl)methyl]-4,6,7,8,9,10-hexahydro-3-hydroxy-4-oxo-] and COCC1(C(=O)NC23CCC(CC2)Cn2c3nc(C(=O)NCc3ccc(F)c(C)c3)c(O)c2=O)CC1 [Example 302, 7,10-Ethanopyrimido[1,2-a]azepine-2-carboxamide, N-[(4-fluoro-3-methylphenyl)methyl]-4,6,7,8,9,10-hexahydro-3-hydroxy-10-[[[1-(methoxymethyl)cyclopropyl]carbonyl]amino]-4-oxo-] cannot be ordered by IC50: less than 10 nM for the first, less than 10 nM for the second.

Cc1cc(CNC(=O)c2nc3n(c(=O)c2O)CC2CCC3(NC(=O)C3(c4ccccn4)CC3)CC2)ccc1F [Example 304, 7,10-Ethanopyrimido[1,2-a]azepine-2-carboxamide, N-[(4-fluoro-3-methylphenyl)methyl]-4,6,7,8,9,10-hexahydro-3-hydroxy-4-oxo-10-[[[1-(2-pyridinyl)cyclopropyl]carbonyl]amino]-] and CN(C)C(=O)C(=O)NC12CCC(CC1)Cn1c2nc(C(=O)NCc2ccc(F)cc2-c2ccccc2)c(O)c1=O [Example 307, Ethanediamide, N′-[2-[[[(5-fluoro/[1,1′-biphenyl]-2-yl)methyl]amino]carbonyl]-6,7,8,9-tetrahydro-3-hydroxy-4-oxo-7,10-ethanopyrimido[1,2-a]azepin-10(4H)-yl]-N,N-dimethyl-] cannot be ordered by IC50: less than 10 nM for the first, less than 10 nM for the second.
